Measurements taken from paper PMC5066151 (ACS Medicinal Chemistry Letters, 2016).
pIC50: −log10 of the molar value. One block for each molecule: values may come before it.

Tests used:
[1] = cited from earlier work
[2] = biological target: T1, recombinant human renin (rh-renin) (Homo sapiens, UniProt P00797); assay: Rh-renin inhibition assay; assay type: biochemical; settings: 3R,5S-enantiomer vs 3S,5R-enantiomer; rh-renin or hPRA assay
T1 sequence (P00797 67-406): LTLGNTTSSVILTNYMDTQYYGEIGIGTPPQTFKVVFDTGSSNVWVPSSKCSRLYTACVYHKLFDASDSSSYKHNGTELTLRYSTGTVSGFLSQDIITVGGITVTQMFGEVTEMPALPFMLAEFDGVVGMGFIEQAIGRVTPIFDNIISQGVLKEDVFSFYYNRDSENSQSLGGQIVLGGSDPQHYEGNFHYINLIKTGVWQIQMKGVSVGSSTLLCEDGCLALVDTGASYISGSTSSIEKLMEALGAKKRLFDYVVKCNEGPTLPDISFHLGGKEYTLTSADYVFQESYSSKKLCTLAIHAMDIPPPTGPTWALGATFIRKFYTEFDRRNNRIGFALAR

[3] = biological target: T2, endogenous renin in human plasma (Homo sapiens, UniProt P00797); assay: Human plasma renin activity; assay type: biochemical; settings: methoxypropylamino vs furfurylamine S3sp binder (compound 5)
T2 sequence (P00797 67-406): T1 sequence (P00797 67-406)

[4] = Pharmacokinetic analysis in rat cassette dosing; assay type: in vivo; settings: 1 mg/kg p.o., n = 3
[5] = biological target: pepsin (Homo sapiens, UniProt P0DJD8); assay: Selectivity against aspartic protease pepsin; assay type: biochemical
Chain of pepsin (P0DJD8 63-388): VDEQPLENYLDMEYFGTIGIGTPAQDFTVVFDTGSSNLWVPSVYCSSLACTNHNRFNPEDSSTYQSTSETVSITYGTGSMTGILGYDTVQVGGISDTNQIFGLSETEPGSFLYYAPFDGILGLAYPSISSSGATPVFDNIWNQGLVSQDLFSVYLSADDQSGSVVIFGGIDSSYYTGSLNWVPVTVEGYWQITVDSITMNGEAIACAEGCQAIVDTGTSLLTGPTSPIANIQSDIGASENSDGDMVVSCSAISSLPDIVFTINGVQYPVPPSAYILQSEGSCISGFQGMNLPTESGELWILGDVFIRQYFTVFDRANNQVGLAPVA

[6] = system: human-angiotensinogen and human-renin double transgenic rats (dTg rat); assay: Antihypertensive effect, systolic blood pressure by tail-cuff in dTg rat model

SMILES: CC(C)CN(C(=O)c1cnc(C(C)(C)C)nc1NCc1ccco1)[C@H]1CCCNC1 [Compound 1]
oral bioavailability in rats [1]: 13.8%

SMILES: COC(=O)[C@H]1CNC[C@@H](N(CC(C)C)C(=O)c2cnc(C(C)(C)C)nc2NCc2ccco2)C1 [Compound 5]
fold more potent toward renin than its enantiomer 4 [2]: about 30 fold

SMILES: COCCCCn1c(C(=O)N(CC(C)C)[C@@H]2CNC[C@H](C(=O)N3CCOCC3)C2)nc2ccccc21.Cl [Compound 10, 1-(4-methoxybutyl)-N-(2-methylpropyl)-N-[(3S,5R)-5-(morpholin-4-yl)carbonylpiperidin-3-yl]-1H-benzimidazole-2-carboxamide hydrochloride]
pIC50 [5]: < 5.00
antihypertensive efficacy (SBP) compared with aliskiren 75 mg/kg ([6]; 3 mg/kg p.o., 5 h after oral administration): comparable to that of aliskiren
antihypertensive efficacy (SBP) compared with aliskiren 75 mg/kg ([6]; 10 mg/kg p.o., 5 and 24 h after administration): exceeded that of aliskiren
antihypertensive efficacy (SBP) ([6]; 3 and 10 mg/kg p.o., SBP at 5 and 24 h): potent and long-lasting antihypertensive efficacy in a dose-dependent manner

Continued, values first:

fold decrease in renin inhibitory activity relative to the furfurylamine moiety [3]: 10 fold
SMILES: COCCCNc1nc(C(C)(C)C)ncc1C(=O)N(CC(C)C)[C@@H]1CNC[C@H](C(=O)OC)C1 [Compound 6]

AUCpo [4]: not detected
SMILES: COCCCNc1nc(C(C)(C)C)ncc1C(=O)N(CC(C)C)[C@@H]1CNC[C@H](C(=O)N2CCOCC2)C1 [Compound 8]
